Results as given in the CheMixHub viscosity set.
± gives the uncertainty stated by the source.

Assay: xn = mol fraction of the nth substance listed

With `CCCCCCCC/C=C\CCCCCCCC(=O)OCC(COC(=O)CCCCCCC/C=C\CCCCCCCC)OC(=O)CCCCCCC/C=C\CCCCCCCC` + c1ccccc1 the viscosity (298.15 K, 101.3 kPa, x1 = 0.000368) was 0.613 ± 0.0042 mPa·s, the viscosity (298.15 K, 101.3 kPa, x1 = 0.000535) was 0.6159 ± 0.0042 mPa·s and the viscosity (298.15 K, 101.3 kPa, x1 = 0.001078) was 0.6281 ± 0.0043 mPa·s. For the same compound, the viscosity (298.15 K, 101.3 kPa, x1 = 0.002049) was 0.6494 ± 0.0044 mPa·s, the viscosity (298.15 K, 101.3 kPa, x1 = 0.004187) was 0.7009 ± 0.0047 mPa·s and the viscosity (298.15 K, 101.3 kPa, x1 = 0.006457) was 0.7579 ± 0.005 mPa·s. For the same compound, the viscosity (298.15 K, 101.3 kPa, x1 = 0.008697) was 0.8092 ± 0.0053 mPa·s, the viscosity (298.15 K, 101.3 kPa, x1 = 0.01009) was 0.8347 ± 0.0054 mPa·s and the viscosity (303.15 K, 101.3 kPa, x1 = 0.000368) was 0.572 ± 0.004 mPa·s. The viscosity (303.15 K, 101.3 kPa, x1 = 0.000535) was 0.5754 ± 0.004 mPa·s, the viscosity (303.15 K, 101.3 kPa, x1 = 0.001078) was 0.5855 ± 0.004 mPa·s and the viscosity (303.15 K, 101.3 kPa, x1 = 0.002049) was 0.6052 ± 0.0042 mPa·s. For the same compound, the viscosity (303.15 K, 101.3 kPa, x1 = 0.004187) was 0.6529 ± 0.0044 mPa·s, the viscosity (303.15 K, 101.3 kPa, x1 = 0.006457) was 0.7052 ± 0.0047 mPa·s and the viscosity (303.15 K, 101.3 kPa, x1 = 0.008697) was 0.7525 ± 0.005 mPa·s. It also gave a viscosity (303.15 K, 101.3 kPa, x1 = 0.01009) of 0.7753 ± 0.0051 mPa·s, a viscosity (308.15 K, 101.3 kPa, x1 = 0.000368) of 0.5349 ± 0.0038 mPa·s and a viscosity (308.15 K, 101.3 kPa, x1 = 0.000535) of 0.5384 ± 0.0038 mPa·s. For the same compound, the viscosity (308.15 K, 101.3 kPa, x1 = 0.001078) was 0.5476 ± 0.0038 mPa·s, the viscosity (308.15 K, 101.3 kPa, x1 = 0.002049) was 0.5658 ± 0.0039 mPa·s and the viscosity (308.15 K, 101.3 kPa, x1 = 0.004187) was 0.6095 ± 0.0042 mPa·s. For the same compound, the viscosity (308.15 K, 101.3 kPa, x1 = 0.006457) was 0.6577 ± 0.0044 mPa·s, the viscosity (308.15 K, 101.3 kPa, x1 = 0.008697) was 0.7013 ± 0.0047 mPa·s and the viscosity (308.15 K, 101.3 kPa, x1 = 0.01009) was 0.7219 ± 0.0048 mPa·s.

In the case of `Cc1cccc(C)n1` + c1ccccc1, the viscosity (303 K, 101 kPa, x1 = 0.0985) is reported as 0.5677 ± 0.0041 mPa·s, the viscosity (303 K, 101 kPa, x1 = 0.1989) is reported as 0.58 ± 0.0043 mPa·s and the viscosity (303 K, 101 kPa, x1 = 0.2996) is reported as 0.607 ± 0.0047 mPa·s. For the same compound, the viscosity (303 K, 101 kPa, x1 = 0.3945) was 0.6191 ± 0.0051 mPa·s, the viscosity (303 K, 101 kPa, x1 = 0.5025) was 0.6385 ± 0.0056 mPa·s and the viscosity (303 K, 101 kPa, x1 = 0.5994) was 0.6614 ± 0.0062 mPa·s. For the same compound, the viscosity (303 K, 101 kPa, x1 = 0.6976) was 0.6823 ± 0.0068 mPa·s, the viscosity (303 K, 101 kPa, x1 = 0.8006) was 0.7108 ± 0.0075 mPa·s and the viscosity (303 K, 101 kPa, x1 = 0.9013) was 0.7403 ± 0.0083 mPa·s. For the same compound, the viscosity (313 K, 101 kPa, x1 = 0.0985) was 0.501 ± 0.0037 mPa·s, the viscosity (313 K, 101 kPa, x1 = 0.1989) was 0.514 ± 0.0039 mPa·s and the viscosity (313 K, 101 kPa, x1 = 0.2996) was 0.5301 ± 0.0042 mPa·s. For the same compound, the viscosity (313 K, 101 kPa, x1 = 0.3945) was 0.5472 ± 0.0046 mPa·s, the viscosity (313 K, 101 kPa, x1 = 0.5025) was 0.5654 ± 0.005 mPa·s and the viscosity (313 K, 101 kPa, x1 = 0.5994) was 0.5824 ± 0.0055 mPa·s. It also gave a viscosity (313 K, 101 kPa, x1 = 0.6976) of 0.6012 ± 0.006 mPa·s, a viscosity (313 K, 101 kPa, x1 = 0.8006) of 0.6267 ± 0.0067 mPa·s and a viscosity (313 K, 101 kPa, x1 = 0.9013) of 0.648 ± 0.0073 mPa·s. For the same compound, the viscosity (323 K, 101 kPa, x1 = 0.0985) was 0.4471 ± 0.0034 mPa·s, the viscosity (323 K, 101 kPa, x1 = 0.1989) was 0.4595 ± 0.0036 mPa·s and the viscosity (323 K, 101 kPa, x1 = 0.2996) was 0.4735 ± 0.0038 mPa·s. The viscosity (323 K, 101 kPa, x1 = 0.3945) was 0.4858 ± 0.0041 mPa·s, the viscosity (323 K, 101 kPa, x1 = 0.5025) was 0.5011 ± 0.0045 mPa·s and the viscosity (323 K, 101 kPa, x1 = 0.5994) was 0.5177 ± 0.0049 mPa·s. It also gave a viscosity (323 K, 101 kPa, x1 = 0.6976) of 0.5355 ± 0.0054 mPa·s, a viscosity (323 K, 101 kPa, x1 = 0.8006) of 0.5569 ± 0.006 mPa·s and a viscosity (323 K, 101 kPa, x1 = 0.9013) of 0.5778 ± 0.0066 mPa·s.

Compound `O=S(Cl)Cl` + c1ccccc1 has a viscosity (298.15 K, 101 kPa, x1 = 0.181) of 0.5962 ± 0.015 mPa·s, a viscosity (298.15 K, 101 kPa, x1 = 0.366) of 0.5999 ± 0.015 mPa·s and a viscosity (298.15 K, 101 kPa, x1 = 0.481) of 0.602 ± 0.016 mPa·s. It also gave a viscosity (298.15 K, 101 kPa, x1 = 0.686) of 0.6068 ± 0.016 mPa·s and a viscosity (298.15 K, 101 kPa, x1 = 0.877) of 0.6165 ± 0.016 mPa·s.
